Results as given in PubChem BioAssay AID1963986 (Molecular Pharmacology Branch, DTP, NCI, 2024).

Tested on: 171881-019-R-J1-PDC tumor spheroid viability
Test: Anticancer human tumor 171881-019-R-J1-PDC patient-derived invasive breast carcinoma cell line growth inhibition [PI3K]
Settings: spheroids with HUVEC and MSC; for IC50: curve of first compound; for viability, T/C: stronger effect = lower value
Excerpt: Combinatorial screen of targeted agents with the PI3K inhibitors inavolisib, alpelisib, duvelisib, and copanlisib in multi-cell type tumor spheroids
A high-throughput screen of multi-cell type tumor spheroids was designed to identify active combinations of targeted small molecules and PI3K pathway inhibitors. Complex spheroids include a stromal component modeled by human endothelial cells (HUVEC) and fibroblasts modeled by human mesenchymal stem cells (MSCs). The concentration ranges selected for each drug and investigational agent were based upon clinically achievable concentrations if the clinical Cmax of the agent was known.
Compounds. The drugs and investigational agents: inavolisib (NSC800729), alpelisib (NSC765974), duvelisib (NSC772469), copanlisib (NSC816437), ipatasertib (NSC767898), afuresertib (NSC778305), talazoparib (NSC767125), sapanisertib (NSC764658), selumetinib (NSC741078), tovorafenib (DAY101, NSC766906), vemurafenib (NSC761431), ravoxertinib (NSC781343), sotorasib (NSC818433), MRTX1133 (NSC 836407), abemaciclib (NSC 768073), palbociclib (NSC758247), venetoclax (NSC 766270), SY5609 (NSC837396), enzalutamide (NSC755605), and darolutamide (NSC825331), were obtained from the National Cancer Institute (NCI) Developmental Therapeutics Program Chemical Repository. The FDA-approved anticancer drug set is available from the NCI Developmental Therapeutics Program. […] The stock solutions were prepared in dimethyl sulfoxide (DMSO, Sigma-Aldrich, St. Louis, MO, cat. D2650) at 800-fold the tested concentration and stored at -70 degrees C prior to their use. All drugs and investigational agents were tested over a range starting from a high concentration at or near the clinical Cmax and decreasing in half-log increments. If the clinical Cmax for an agent had not been determined, the highest concentration tested was 10 microM.
Cell Culture. All cells were maintained in an incubator at 37 degrees C and 5% CO2 with 95% humidity. The PDC lines were cultured according to standard operating procedures established by the NCI PDMR (https://pdmr.cancer.gov/sops/default.htm). All PDCs were thawed and cultured in Matrigel-coated flasks prepared with a working solution of 1X Ham's F-12 nutrient mix, without supplementation (Invitrogen, Waltham, MA, cat. 11765054), 100 U/mL penicillin-streptomycin (Invitrogen, cat. 15140122), and 2.5% Matrigel (Corning Inc., Corning, NY, cat. 354248) for the first three passages. The 354836-022-R-J1-PDC, 475296-252-R-J1-PDC, and 997726-040-R-J2-PDC lines were cultured in 6A media, which includes advanced DMEM/F-12 (Thermo Fisher Scientific, cat. 12634028), 10 mM HEPES (Thermo Fisher Scientific, cat. 15630080), 1X GlutaMAX supplement (Thermo Fisher Scientific, cat. 35050061), 0.1 mg/mL primocin (InvivoGen, San Diego, CA, cat. ant-pm-2), 10% defined fetal bovine serum, heat inactivated (HyClone Laboratories Inc., Logan, UT, cat. SH30070.03HI), 50% L-WRN conditioned media (ATCC, cat. CRL-3276), 1.25 mM N-Acetyl-L-cysteine (Sigma-Aldrich, cat. A9165), 10 mM nicotinamide (Sigma-Aldrich, cat. N0636), 1X B-27 supplement (Thermo Fisher Scientific, cat. 17504044), 1X N-2 supplement (Thermo Fisher Scientific, cat. 17502048), and 10 microM Y-27632 dihydrochloride (Tocris Bioscience, Bristol, United Kingdom, cat. 1254). The 624824-186-R-J2-PDC line was cultured in 6C/Colon 1B media, which includes all 6A media components plus 50 ng/mL human EGF recombinant protein (Thermo Fisher Scientific, cat. PHG0311). […]
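Note: spheroids exposed to compound for 7 days before viability read.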
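Throughout, for viability, T/C: 100% = DMSO vehicle-treated spheroids.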

Cn1cnc2c(F)c(Nc3ccc(Br)cc3Cl)c(C(=O)NOCCO)cc21 + CC(Nc1ccc2c(c1)OCCn1cc(N3C(=O)OCC3C(F)F)nc1-2)C(N)=O
IC50 (second compound 0.00316 µM): 422 nM
IC50 (second compound 0.01 µM): 71 nM
IC50 (second compound 0.0316 µM): < 9.49 nM
IC50 (second compound 0.1 µM): < 9.49 nM
IC50 (second compound 0.316 µM): < 9.49 nM
IC50 (second compound 1 µM): < 9.49 nM
viability, T/C (second compound 0.00316 µM, first compound 0.00949 µM): 63.8%
viability, T/C (second compound 0.00316 µM, first compound 0.03 µM): 71.5%
viability, T/C (second compound 0.00316 µM, first compound 0.0949 µM): 64.9%
viability, T/C (second compound 0.00316 µM, first compound 0.3 µM): 56.4%
viability, T/C (second compound 0.00316 µM, first compound 0.949 µM): 34.3%
viability, T/C (second compound 0.00316 µM, first compound 3 µM): 15.4%
viability, T/C (second compound 0.01 µM, first compound 0.00949 µM): 60.4%
viability, T/C (second compound 0.01 µM, first compound 0.03 µM): 54.8%
viability, T/C (second compound 0.01 µM, first compound 0.0949 µM): 46.9%
viability, T/C (second compound 0.01 µM, first compound 0.3 µM): 40.9%
viability, T/C (second compound 0.01 µM, first compound 0.949 µM): 23.9%
viability, T/C (second compound 0.01 µM, first compound 3 µM): 10.1%
viability, T/C (second compound 0.0316 µM, first compound 0.00949 µM): 44.8%
viability, T/C (second compound 0.0316 µM, first compound 0.03 µM): 38.7%
viability, T/C (second compound 0.0316 µM, first compound 0.0949 µM): 33.9%
viability, T/C (second compound 0.0316 µM, first compound 0.3 µM): 26.8%
viability, T/C (second compound 0.0316 µM, first compound 0.949 µM): 16.4%
viability, T/C (second compound 0.0316 µM, first compound 3 µM): 6.34%
viability, T/C (second compound 0.1 µM, first compound 0.00949 µM): 30.6%
viability, T/C (second compound 0.1 µM, first compound 0.03 µM): 27.1%
viability, T/C (second compound 0.1 µM, first compound 0.0949 µM): 24.2%
viability, T/C (second compound 0.1 µM, first compound 0.3 µM): 17.7%
viability, T/C (second compound 0.1 µM, first compound 0.949 µM): 9.75%
viability, T/C (second compound 0.1 µM, first compound 3 µM): 2.93%
viability, T/C (second compound 0.316 µM, first compound 0.00949 µM): 20.9%
viability, T/C (second compound 0.316 µM, first compound 0.03 µM): 18.9%
viability, T/C (second compound 0.316 µM, first compound 0.0949 µM): 15.3%
viability, T/C (second compound 0.316 µM, first compound 0.3 µM): 11.7%
viability, T/C (second compound 0.316 µM, first compound 0.949 µM): 4.97%
viability, T/C (second compound 0.316 µM, first compound 3 µM): 1.75%
viability, T/C (second compound 1 µM, first compound 0.00949 µM): 16.9%
viability, T/C (second compound 1 µM, first compound 0.03 µM): 13.7%
viability, T/C (second compound 1 µM, first compound 0.0949 µM): 12.7%
viability, T/C (second compound 1 µM, first compound 0.3 µM): 8.33%
viability, T/C (second compound 1 µM, first compound 0.949 µM): 2.91%
viability, T/C (second compound 1 µM, first compound 3 µM): 1.25%
